Measurements as given in US7220720B2, “Melanin-concentrating hormone analogs” (Merk & Co., Inc., priority 2000, dated 2007).
Where a SMILES comes first, the peptide text is derived from it. Bridges are numbered along the chain shown (N, C = ends).

Legend:
human MCH receptor [1] = target: T1, human MCH receptor (Homo sapiens, UniProt Q99705); assay: Radiolabeled MCH-R binding assay: inhibition of [125I]-human MCH (Phe13, Tyr19 substituted) binding to cell membranes (filter or SPA format); parameters: expressed in transfected cells; conditions: Table 5; position 10 modification; read-out: Activity IC50
T1 sequence (Q99705 whole entry): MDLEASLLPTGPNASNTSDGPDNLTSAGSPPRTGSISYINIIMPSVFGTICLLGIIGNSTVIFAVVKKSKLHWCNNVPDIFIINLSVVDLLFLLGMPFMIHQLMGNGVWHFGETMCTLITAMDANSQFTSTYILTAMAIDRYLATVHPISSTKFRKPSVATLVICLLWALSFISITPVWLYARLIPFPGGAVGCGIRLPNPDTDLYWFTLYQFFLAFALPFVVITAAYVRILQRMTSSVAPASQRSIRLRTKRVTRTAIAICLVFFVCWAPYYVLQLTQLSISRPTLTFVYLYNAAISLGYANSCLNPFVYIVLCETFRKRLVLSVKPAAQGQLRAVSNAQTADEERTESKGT
Description: Cell membranes were prepared on ice. Each T-75 flask was rinsed twice with 10 ml of Enzyme-free Cell Dissociation Buffer (Specialty Media, Lavallette, N.J.), and the cell monolayer was detached in an additional 10 ml of Enzyme-free Cell Dissociation Buffer by incubation at room temperature for 10 minutes. Dissociated cells were centrifuged (500×g for 10 minutes at 4° C.), resuspended in 5 ml homogenization buffer (10 mM Tris-HCl, pH 7.4, 0.01 mM Pefabloc, 10 μM phosphoramidon, 40 μg/ml bacitracin) and then homogenized using a glass homogenizer (10–15 strokes). The homogenate was centrifuged for 10 minutes (1,000×g at 4° C.). The resulting supernatant was then centrifuged at 38,700×g for 15 minutes at 4° C. Pelleted membranes were resuspended (passed through 25 gauge needle 5 times), snap-frozen on liquid nitrogen, and stored at −80° C. until use.
Binding was performed in a 96-well filter assay or Scintillation Proximity Assay (SPA)-based format using cell membranes from a stable CHO or HEK-293 cell line expressing the MCH receptor. For the filter assay, reactions were performed at 20° C. for 1 hour in a total volume of 0.2 ml containing: 0.05 ml of membrane suspension (˜3 μg protein), 0.02 ml of [^125I]-human MCH (Phe^13, Tyr^19 substituted; 30 pM), 0.01 ml of competitor and 0.12 ml of binding buffer (50 mM Tris-HCl, pH 7.4, 10 mM MgCl2, 2 mM EDTA, 200 μg/ml bacitracin, 1 μM phosphoramidon).
Bound radioligand was separated by rapid vacuum filtration (Packard Filtermate 96-well cell harvester) through GF/C filters pretreated for 1 hour with 1% polyethylenimine. After application of the membrane suspension to the filter, the filters were washed 3 times with 3 ml each of ice-cold 50 mM Tris-HCl, pH 7.4, 10 mM MgCl2, 2 mM EDTA, 0.04% Tween 20 and the bound radioactivity on the filters was quantitated by scintillation counting (TopCount device).
For the SPA-based assay, WGA-PVT beads (NEN Life Sciences Products) were resuspended in Dulbecco's PBS with calcium and magnesium (500 mg beads in 4 ml PBS). For each 96-well assay plate, 0.18 ml of beads was pre-coated with MCH receptor by mixing with 0.2 ml MCH receptor CHO cell membranes (˜0.2–4 mg protein) and 1.5 ml SPA assay buffer (50 mM Tris-HCl, pH 7.4, 10 mM MgCl2, 2 mM EDTA, 0.1% BSA, 12% glycerol). The suspension was mixed gently for 20 minutes, 12.3 ml of assay buffer and protease inhibitors were added (final concentration given): 2 μg/ml leupeptin, 10 μM phosphoramidon, 40 μg/ml bacitracin, 5 μg/ml aprotinin, 0.1 mM Pefabloc.
Coated beads were kept on ice until use. For each well, 0.145 ml of beads were added to Optiplate assay plates (Packard 6005190), followed by 0.002–0.004 ml of competitor and 0.05 ml of [^125I]-human MCH (Phe^13, Tyr^19 substituted; 30 pM). Binding reactions were allowed to proceed at room temperature for 3 hours. Quantitation was performed by scintillation counting (TopCount device).

human MCH receptor [2] = target: T1, human MCH receptor; assay: Aequorin bioluminescence functional assay in 293-AEQ17 cells transfected with human MCH receptor; format: cell-based; parameters: expressed in transfected cells; host or cells: 293-AEQ17 (aequorin-expressing HEK-293 reporter line), transient lipofectamine transfection, pcDNA-3 vector; Activity Activation %: concentration or dose not given beside the values
Description: The aequorin bioluminescence assay is a reliable test for measuring the activity of G protein-coupled receptors that couple through the Gα protein subunit family consisting of Gq and Gll and leads to the activation of phospholipase C, mobilization of intracellular calcium and activation of protein kinase C.
Following approximately 40 hours of expression the apo-aequorin in the cells was charged for 4 hours with coelenterazine (10 μM) under reducing conditions (300 μM reduced glutathione) in ECB buffer (140 mM NaCl, 20 mM KCl, 20 mM HEPES-NaOH [pH=7.4], 5 mM glucose, 1 mM MgCl2, 1 mM CaCl2, 0.1 mg/ml bovine serum albumin).
The cells were harvested, washed once in ECB medium and resuspended to 500,000 cells/ml. 100 μl of cell suspension (corresponding to 5×10^4 cells) was then injected into the test plate containing MCH or MCH analogs, and the integrated light emission was recorded over 30 seconds, in 0.5 second units. 20 μL of lysis buffer (0.1% final Triton X-100 concentration) was then injected and the integrated light emission recorded over 10 seconds, in 0.5 second units. The “fractional response” values for each well were calculated by taking the ratio of the integrated response to the initial challenge to the total integrated luminescence including the Triton X-100 lysis response.

[3] = Table 5, position 10 modification
[4] = Table 4, position 6 modification
[5] = Table 6, position 13 modification

| Compound | Activity Activation % (human MCH receptor [2]; [3]) | Activity Activation % (human MCH receptor [2]; [4]) | other results |
| --- | --- | --- | --- |
| CSCC[C@@H]1NC(=O)[C@@H](NC(=O)[C@H](CCCNC(=N)N)NC(C)=O)CSSC[C@@H](C(N)=O)NC(=O)[C@@H]2CCCN2C(=O)[C@H](CCCNC(=N)N)NC(=O)[C@H](Cc2ccc(O)cc2)NC(=O)[C@H](C(C)C)NC(=O)[C@H](CCCNC(=N)N)NC(=O)[C@H](CCC(=O)O)NC(=O)[C@H](CC(C)C)NC1=O [compound 54] | 12% |  | IC50 (human MCH receptor [1]): 190 nM |
| CSCC[C@@H]1NC(=O)[C@@H](NC(=O)[C@@H](N)CCCNC(=N)N)CSSC[C@@H](C(N)=O)NC(=O)[C@@H]2CCCN2C(=O)[C@H](CCCNC(=N)N)NC(=O)[C@H](Cc2ccc(O)cc2)NC(=O)[C@H](C(C)C)NC(=O)[C@H](CCCNC(=N)N)NC(=O)CNC(=O)[C@H](CC(C)C)NC1=O [compound 39] |  | 106% |  |
| CSCC[C@@H]1NC(=O)[C@@H](NC(=O)[C@H](CCCNC(=N)N)NC(C)=O)CSSC[C@@H](C(N)=O)NC(=O)[C@@H]2CCCN2C(=O)[C@H](CCCNC(=N)N)NC(=O)[C@H](Cc2ccc(O)cc2)NC(=O)[C@H](C(C)C)NC(=O)[C@H](CCCNC(=N)N)NC(=O)[C@H](C)NC(=O)[C@H](CC(C)C)NC1=O [compound 47] (Ac-RCMLARVYRPC-NH2; disulfide 2-11) | 104% |  |  |
| CSCC[C@@H]1NC(=O)[C@@H](NC(=O)[C@H](CCCNC(=N)N)NC(C)=O)CSSC[C@@H](C(N)=O)NC(=O)[C@@H]2CCCN2C(=O)[C@H](CCCNC(=N)N)NC(=O)[C@H](Cc2ccc(O)cc2)NC(=O)[C@H](C(C)C)NC(=O)[C@H](CCCNC(=N)N)NC(=O)[C@H](CC(C)C)NC(=O)[C@H](CC(C)C)NC1=O [compound 48] | 106% |  |  |
| CSCC[C@@H]1NC(=O)[C@@H](N)CSSC[C@@H](C(N)=O)NC(=O)[C@@H]2CCCN2C(=O)[C@H](CCCNC(=N)N)NC(=O)[C@H](Cc2ccc(O)cc2)NC(=O)[C@H](C(C)C)NC(=O)[C@H](CCCNC(=N)N)NC(=O)CNC(=O)[C@H](CC(C)C)NC1=O [compound 37] |  | 120% |  |
| CSCC[C@@H]1NC(=O)[C@@H](NC(C)=O)CSSC[C@@H](C(N)=O)NC(=O)[C@@H]2CCCN2C(=O)[C@H](CCCNC(=N)N)NC(=O)[C@H](Cc2ccc(O)cc2)NC(=O)[C@H](C(C)C)NC(=O)[C@H](CCCNC(=N)N)NC(=O)CNC(=O)[C@H](CC(C)C)NC1=O [compound 38] |  | 82% |  |
| CSCC[C@@H]1NC(=O)[C@@H](NC(=O)[C@H](CO)NC(C)=O)CSSC[C@@H](C(N)=O)NC(=O)[C@@H]2CCCN2C(=O)[C@H](CCCNC(=N)N)NC(=O)[C@H](Cc2ccc(O)cc2)NC(=O)[C@H](C(C)C)NC(=O)[C@H](CCCNC(=N)N)NC(=O)CNC(=O)[C@H](CC(C)C)NC1=O [compound 35] |  | 120% |  |
| CSCC[C@@H]1NC(=O)[C@@H](NC(=O)[C@H](CCCNC(=N)N)NC(=O)[C@H](CC(C)C)NC(=O)[C@H](CCSC)NC(=O)[C@H](CC(=O)O)NC(=O)[C@H](Cc2ccccc2)NC(=O)[C@@H](N)CC(=O)O)CSSC[C@@H](C(=O)N[C@@H](Cc2c[nH]c3ccccc23)C(=O)N[C@@H](CCC(N)=O)C(=O)N[C@H](C(=O)O)C(C)C)NC(=O)[C@@H]2CCCN2C(=O)[C@H](CCCNC(=N)N)NC(=O)[C@H](Cc2ccc(O)cc2)NC(=O)[C@H](C(C)C)NC(=O)[C@H](CCCNC(=N)N)NC(=O)CNC(=O)[C@H](CC(C)C)NC1=O [compound 11] | 100% | 100% | % Activation at 10 μM (human MCH receptor [2]; Table 1, at 10 μM, aequorin functional assay): 100%; Activity Activation % (human MCH receptor [2]; Table 2, D-amino acid analogs): 100%; Activity Activation % (human MCH receptor [2]; Table 3, N-methyl-amino acid analogs): 100%; Activity Activation % (human MCH receptor [2]; [5]): 100%; Activity Activation % (human MCH receptor [2]; Table 7, combinations and position 8): 100% |
| CSCC[C@@H]1NC(=O)[C@@H](NC(=O)[C@H](CCCNC(=N)N)NC(C)=O)CSSC[C@@H](C(N)=O)NC(=O)[C@@H]2CCCN2C(=O)[C@H](CCCNC(=N)N)NC(=O)[C@H](Cc2ccccc2)NC(=O)[C@H](C(C)C)NC(=O)[C@H](CCCNC(=N)N)NC(=O)CNC(=O)[C@H](CC(C)C)NC1=O [compound 62] |  |  | Activity Activation % (human MCH receptor [2]; [5]): 96% |
| CSCC[C@@H]1NC(=O)[C@@H](NC(=O)[C@H](C)NC(C)=O)CSSC[C@@H](C(N)=O)NC(=O)[C@@H]2CCCN2C(=O)[C@H](CCCNC(=N)N)NC(=O)[C@H](Cc2ccc(O)cc2)NC(=O)[C@H](C(C)C)NC(=O)[C@H](CCCNC(=N)N)NC(=O)CNC(=O)[C@H](CC(C)C)NC1=O [compound 31] (Ac-ACMLGRVYRPC-NH2; disulfide 2-11 (inferred)) |  | 135% |  |
| CSCC[C@@H]1NC(=O)[C@@H](NC(=O)[C@H](CCC(=O)O)NC(C)=O)CSSC[C@@H](C(N)=O)NC(=O)[C@@H]2CCCN2C(=O)[C@H](CCCNC(=N)N)NC(=O)[C@H](Cc2ccc(O)cc2)NC(=O)[C@H](C(C)C)NC(=O)[C@H](CCCNC(=N)N)NC(=O)CNC(=O)[C@H](CC(C)C)NC1=O [compound 36] |  | 113% |  |
| CSCC[C@@H]1NC(=O)[C@@H](NC(=O)[C@H](CCCNC(=N)N)NC(C)=O)CSSC[C@@H](C(N)=O)NC(=O)[C@@H]2CCCN2C(=O)[C@H](CCCNC(=N)N)NC(=O)[C@H](Cc2ccc(O)cc2)NC(=O)[C@H](C(C)C)NC(=O)[C@H](CCCNC(=N)N)NC(=O)[C@H](CC(N)=O)NC(=O)[C@H](CC(C)C)NC1=O [compound 51] (Ac-RCMLNRVYRPC-NH2; disulfide 2-11) | 106% |  | EC50 (human MCH receptor [2]; [3]): 23 nM |
| CSCC[C@@H]1NC(=O)[C@@H](NC(=O)[C@@H]2CCCN2C(C)=O)CSSC[C@@H](C(N)=O)NC(=O)[C@@H]2CCCN2C(=O)[C@H](CCCNC(=N)N)NC(=O)[C@H](Cc2ccc(O)cc2)NC(=O)[C@H](C(C)C)NC(=O)[C@H](CCCNC(=N)N)NC(=O)CNC(=O)[C@H](CC(C)C)NC1=O [compound 33] |  | 133% |  |
| CSCC[C@@H]1NC(=O)[C@@H](NC(=O)[C@H](CCCNC(=N)N)NC(C)=O)CSSC[C@@H](C(N)=O)NC(=O)[C@@H]2CCCN2C(=O)[C@H](CCCNC(=N)N)NC(=O)[C@H](Cc2ccc(O)cc2)NC(=O)[C@H](C(C)C)NC(=O)[C@H](CCCNC(=N)N)NC(=O)[C@H](CO)NC(=O)[C@H](CC(C)C)NC1=O [compound 52] (Ac-RCMLSRVYRPC-NH2; disulfide 2-11 (inferred)) | 104% |  |  |
| CSCC[C@@H]1NC(=O)[C@@H](NC(=O)[C@H](CC(N)=O)NC(C)=O)CSSC[C@@H](C(N)=O)NC(=O)[C@@H]2CCCN2C(=O)[C@H](CCCNC(=N)N)NC(=O)[C@H](Cc2ccc(O)cc2)NC(=O)[C@H](C(C)C)NC(=O)[C@H](CCCNC(=N)N)NC(=O)CNC(=O)[C@H](CC(C)C)NC1=O [compound 34] |  | 96% |  |
